Laboratory results published in US10280170B2, “Substituted 4,5,6,7-tetrahydro-pyrazolo[1,5-a]pyrazine derivatives and 5,6,7,8-tetrahydro-4H-pyrazolo[1,5-a][1,4]diazepine derivatives as Ros1 inhibitors” (Janssen Pharmaceutica NV, priority 2014, dated 2019).
Where two headings read alike, the source gives them in different places.

How the values were obtained:
[1] = test system: Ba/F3 cells containing Ros1 wild-type protein + IL-3; assay: Ba/F3-Ros1 cell proliferation counter-screen, wild-type protein in the presence of 10 ng/ml murine IL-3; format: cell-based; details: Mus musculus, BaF3, 24 h, read-out: BaF3-ROS1 + IL3 pIC50 (converted)
Summary of the method: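 IL-3 rescue counter-screen: WT Ros1 Ba/F3, 10 ng/ml mIL-3, 24 h compound exposure, 37 °C/5% CO2; Alamar Blue added 4 h, RFU ex540/em590.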

[2] = molecular target: Ba/F3 cells containing Ros1 with G2032R mutation (Homo sapiens, UniProt P08922, G2032R, cells depend on it, form not given); assay: Ba/F3-Ros1 cell proliferation assay, G2032R crizotinib-resistance mutant; format: cell-based, murine; details: without IL-3
Ba/F3 cells containing Ros1 with G2032R mutation, sequence (P08922 whole entry G2032R, form open): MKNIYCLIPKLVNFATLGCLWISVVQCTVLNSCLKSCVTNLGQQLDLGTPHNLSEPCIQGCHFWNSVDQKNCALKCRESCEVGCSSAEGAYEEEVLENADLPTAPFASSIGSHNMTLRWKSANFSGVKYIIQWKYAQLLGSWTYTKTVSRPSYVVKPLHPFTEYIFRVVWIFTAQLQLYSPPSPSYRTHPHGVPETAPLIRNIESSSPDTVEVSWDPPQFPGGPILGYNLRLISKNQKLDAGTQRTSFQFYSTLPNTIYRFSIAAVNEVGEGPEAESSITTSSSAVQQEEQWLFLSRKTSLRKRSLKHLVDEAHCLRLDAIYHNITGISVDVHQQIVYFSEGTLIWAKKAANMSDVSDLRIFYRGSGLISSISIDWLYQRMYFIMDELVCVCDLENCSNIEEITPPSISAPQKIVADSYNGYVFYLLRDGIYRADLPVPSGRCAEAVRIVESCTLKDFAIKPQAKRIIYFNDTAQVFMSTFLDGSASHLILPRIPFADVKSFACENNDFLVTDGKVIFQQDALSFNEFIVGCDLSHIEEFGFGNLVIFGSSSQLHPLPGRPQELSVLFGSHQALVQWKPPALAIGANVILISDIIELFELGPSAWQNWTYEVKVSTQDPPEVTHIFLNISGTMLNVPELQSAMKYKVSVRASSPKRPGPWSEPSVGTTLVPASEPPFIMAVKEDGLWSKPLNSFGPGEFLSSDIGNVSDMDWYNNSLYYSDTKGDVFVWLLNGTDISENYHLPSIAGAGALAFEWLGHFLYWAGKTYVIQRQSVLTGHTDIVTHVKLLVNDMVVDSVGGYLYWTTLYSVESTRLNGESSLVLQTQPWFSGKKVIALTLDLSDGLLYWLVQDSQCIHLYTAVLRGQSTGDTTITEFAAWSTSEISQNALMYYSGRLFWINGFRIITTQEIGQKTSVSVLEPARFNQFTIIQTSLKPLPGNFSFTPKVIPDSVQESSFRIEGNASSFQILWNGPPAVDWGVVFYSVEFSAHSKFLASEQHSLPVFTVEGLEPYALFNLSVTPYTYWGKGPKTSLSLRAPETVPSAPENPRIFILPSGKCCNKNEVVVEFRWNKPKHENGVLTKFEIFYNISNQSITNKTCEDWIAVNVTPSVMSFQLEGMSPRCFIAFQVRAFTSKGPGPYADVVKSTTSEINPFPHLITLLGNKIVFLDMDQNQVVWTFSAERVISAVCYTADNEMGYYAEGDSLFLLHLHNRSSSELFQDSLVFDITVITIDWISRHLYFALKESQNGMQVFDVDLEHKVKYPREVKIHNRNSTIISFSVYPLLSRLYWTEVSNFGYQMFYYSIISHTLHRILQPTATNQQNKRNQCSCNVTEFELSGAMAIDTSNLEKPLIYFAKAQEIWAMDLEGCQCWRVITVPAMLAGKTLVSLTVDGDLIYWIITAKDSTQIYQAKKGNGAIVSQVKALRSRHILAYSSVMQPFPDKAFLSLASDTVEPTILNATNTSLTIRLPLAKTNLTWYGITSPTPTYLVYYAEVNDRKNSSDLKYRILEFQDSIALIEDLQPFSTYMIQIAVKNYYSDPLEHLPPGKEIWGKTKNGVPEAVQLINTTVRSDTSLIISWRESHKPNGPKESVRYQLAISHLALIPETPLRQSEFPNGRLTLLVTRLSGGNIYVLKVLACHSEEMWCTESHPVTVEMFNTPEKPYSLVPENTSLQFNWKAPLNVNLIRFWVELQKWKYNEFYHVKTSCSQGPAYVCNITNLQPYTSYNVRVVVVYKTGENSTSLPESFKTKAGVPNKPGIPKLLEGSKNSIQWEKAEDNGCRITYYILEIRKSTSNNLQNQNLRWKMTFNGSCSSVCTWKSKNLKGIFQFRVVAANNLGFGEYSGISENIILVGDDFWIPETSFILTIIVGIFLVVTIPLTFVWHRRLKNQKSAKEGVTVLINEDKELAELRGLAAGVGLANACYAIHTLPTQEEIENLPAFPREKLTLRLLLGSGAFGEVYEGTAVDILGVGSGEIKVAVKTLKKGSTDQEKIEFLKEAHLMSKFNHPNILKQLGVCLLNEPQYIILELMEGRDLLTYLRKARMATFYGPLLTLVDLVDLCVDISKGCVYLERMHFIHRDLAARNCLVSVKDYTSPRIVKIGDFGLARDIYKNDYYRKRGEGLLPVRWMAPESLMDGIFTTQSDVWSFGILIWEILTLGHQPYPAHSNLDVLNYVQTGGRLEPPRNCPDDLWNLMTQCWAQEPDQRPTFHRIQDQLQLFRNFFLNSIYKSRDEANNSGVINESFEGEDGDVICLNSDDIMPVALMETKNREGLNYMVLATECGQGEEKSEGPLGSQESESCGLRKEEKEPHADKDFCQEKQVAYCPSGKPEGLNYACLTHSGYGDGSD
Method: Ba/F3-Ros1 Cell Proliferation Assay
This assay was carried out with Ba/F3 cells containing three different versions of Ros1: the wild-type protein, protein with a mutation at the gatekeeper residue (L2026M), and protein with a mutation identified in a tumor from a patient that became resistant to crizotinib (Xalkori®) treatment (G2032R). Compounds were solubilized in 100% DMSO (dimethyl sulfoxide) and sprayed into polystyrene, tissue culture treated 384-well plates. A 50 μl volume of cell culture medium (phenol red free RPMI-1640, 10% FBS (fetal bovine serum), 2 mM L-Glutamine) containing 20000 Ba/F3-Ros1 cells was added to each well and the plates were placed in an incubator at 37° C. and 5% CO2. After 24 hours, 10 μl of Alamar Blue solution (0.5 mM K3Fe(CN)6, 0.5 mM K4Fe(CN)6, 0.15 mM Resazurin and 100 mM Phosphate Buffer) was added to the wells, incubated for 4 hours at 37° C. and 5% CO2 before RFU's (Relative Fluorescence Units) (ex. 540 nm., em. 590 nm.) were measured in a fluorescence plate reader.

[3] = molecular target: Ba/F3 cells containing Ros1 with a mutation at the gatekeeper residue (L2026M) (Homo sapiens, UniProt P08922, L2026M, cells depend on it, form not given); assay: Ba/F3-Ros1 cell proliferation assay, L2026M gatekeeper mutant; format: cell-based, murine; details: without IL-3
Ba/F3 cells containing Ros1 with a mutation at the gatekeeper residue (L2026M), sequence (P08922 whole entry L2026M, form open): as the sequence (P08922 whole entry G2032R, form open) above, with L2026M, R2032G counted along it
Summary of the method: (§1)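 Ba/F3 cells expressing wild-type, L2026M or G2032R Ros1, 20000 cells/well in phenol red-free RPMI-1640 with 10% FBS, 2 mM L-glutamine, exposed to compound for 24 h at 37 °C, 5% CO2. Viability read by Alamar Blue (resazurin) fluorescence, ex 540/em 590 nm, after 4 h further incubation.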

[4] = molecular target: T1, Ba/F3 cells containing Ros1 wild-type protein (Homo sapiens, UniProt P08922, cells depend on it, form not given); assay: Ba/F3-Ros1 cell proliferation assay, wild-type Ros1; format: cell-based, murine; details: without IL-3
T1 construct: The background only speaks of 'a number of different unrelated proteins' and names SLC34A2-ROS1 for HCC78 cells
T1 sequence (P08922 whole entry, stated change not applied): as the sequence (P08922 whole entry G2032R, form open) above, with R2032G counted along it
Summary of the method: as §1

[5] = test system: HCC78 non-small cell lung cancer cells; assay: HCC78 cell proliferation assay; format: cell-based; details: for EC50: Homo sapiens, HCC78, 96 h, read-out: HCC-78 PROL pEC50 (converted)
Summary of the method: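 HCC78 NSCLC cells (~1000/well) in RPMI-1640 with 10% FBS were treated 24 h after seeding and exposed to compound for 4 days at 37 °C. Viability was read by MTT, with absorbance at 538 nm after DMSO/glycine solubilization.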

Ros1 enzyme = molecular target: T2, Ros1 enzyme (Homo sapiens, UniProt P08922); assay: Ros1 enzymatic assay; format: biochemical; details: Ros1 enzymatic assay; for IC50: read-out: ROS1 pIC50 (converted)
T2 construct: 0.5 μg/ml Ros1 enzyme
T2 sequence (P08922 28-2347): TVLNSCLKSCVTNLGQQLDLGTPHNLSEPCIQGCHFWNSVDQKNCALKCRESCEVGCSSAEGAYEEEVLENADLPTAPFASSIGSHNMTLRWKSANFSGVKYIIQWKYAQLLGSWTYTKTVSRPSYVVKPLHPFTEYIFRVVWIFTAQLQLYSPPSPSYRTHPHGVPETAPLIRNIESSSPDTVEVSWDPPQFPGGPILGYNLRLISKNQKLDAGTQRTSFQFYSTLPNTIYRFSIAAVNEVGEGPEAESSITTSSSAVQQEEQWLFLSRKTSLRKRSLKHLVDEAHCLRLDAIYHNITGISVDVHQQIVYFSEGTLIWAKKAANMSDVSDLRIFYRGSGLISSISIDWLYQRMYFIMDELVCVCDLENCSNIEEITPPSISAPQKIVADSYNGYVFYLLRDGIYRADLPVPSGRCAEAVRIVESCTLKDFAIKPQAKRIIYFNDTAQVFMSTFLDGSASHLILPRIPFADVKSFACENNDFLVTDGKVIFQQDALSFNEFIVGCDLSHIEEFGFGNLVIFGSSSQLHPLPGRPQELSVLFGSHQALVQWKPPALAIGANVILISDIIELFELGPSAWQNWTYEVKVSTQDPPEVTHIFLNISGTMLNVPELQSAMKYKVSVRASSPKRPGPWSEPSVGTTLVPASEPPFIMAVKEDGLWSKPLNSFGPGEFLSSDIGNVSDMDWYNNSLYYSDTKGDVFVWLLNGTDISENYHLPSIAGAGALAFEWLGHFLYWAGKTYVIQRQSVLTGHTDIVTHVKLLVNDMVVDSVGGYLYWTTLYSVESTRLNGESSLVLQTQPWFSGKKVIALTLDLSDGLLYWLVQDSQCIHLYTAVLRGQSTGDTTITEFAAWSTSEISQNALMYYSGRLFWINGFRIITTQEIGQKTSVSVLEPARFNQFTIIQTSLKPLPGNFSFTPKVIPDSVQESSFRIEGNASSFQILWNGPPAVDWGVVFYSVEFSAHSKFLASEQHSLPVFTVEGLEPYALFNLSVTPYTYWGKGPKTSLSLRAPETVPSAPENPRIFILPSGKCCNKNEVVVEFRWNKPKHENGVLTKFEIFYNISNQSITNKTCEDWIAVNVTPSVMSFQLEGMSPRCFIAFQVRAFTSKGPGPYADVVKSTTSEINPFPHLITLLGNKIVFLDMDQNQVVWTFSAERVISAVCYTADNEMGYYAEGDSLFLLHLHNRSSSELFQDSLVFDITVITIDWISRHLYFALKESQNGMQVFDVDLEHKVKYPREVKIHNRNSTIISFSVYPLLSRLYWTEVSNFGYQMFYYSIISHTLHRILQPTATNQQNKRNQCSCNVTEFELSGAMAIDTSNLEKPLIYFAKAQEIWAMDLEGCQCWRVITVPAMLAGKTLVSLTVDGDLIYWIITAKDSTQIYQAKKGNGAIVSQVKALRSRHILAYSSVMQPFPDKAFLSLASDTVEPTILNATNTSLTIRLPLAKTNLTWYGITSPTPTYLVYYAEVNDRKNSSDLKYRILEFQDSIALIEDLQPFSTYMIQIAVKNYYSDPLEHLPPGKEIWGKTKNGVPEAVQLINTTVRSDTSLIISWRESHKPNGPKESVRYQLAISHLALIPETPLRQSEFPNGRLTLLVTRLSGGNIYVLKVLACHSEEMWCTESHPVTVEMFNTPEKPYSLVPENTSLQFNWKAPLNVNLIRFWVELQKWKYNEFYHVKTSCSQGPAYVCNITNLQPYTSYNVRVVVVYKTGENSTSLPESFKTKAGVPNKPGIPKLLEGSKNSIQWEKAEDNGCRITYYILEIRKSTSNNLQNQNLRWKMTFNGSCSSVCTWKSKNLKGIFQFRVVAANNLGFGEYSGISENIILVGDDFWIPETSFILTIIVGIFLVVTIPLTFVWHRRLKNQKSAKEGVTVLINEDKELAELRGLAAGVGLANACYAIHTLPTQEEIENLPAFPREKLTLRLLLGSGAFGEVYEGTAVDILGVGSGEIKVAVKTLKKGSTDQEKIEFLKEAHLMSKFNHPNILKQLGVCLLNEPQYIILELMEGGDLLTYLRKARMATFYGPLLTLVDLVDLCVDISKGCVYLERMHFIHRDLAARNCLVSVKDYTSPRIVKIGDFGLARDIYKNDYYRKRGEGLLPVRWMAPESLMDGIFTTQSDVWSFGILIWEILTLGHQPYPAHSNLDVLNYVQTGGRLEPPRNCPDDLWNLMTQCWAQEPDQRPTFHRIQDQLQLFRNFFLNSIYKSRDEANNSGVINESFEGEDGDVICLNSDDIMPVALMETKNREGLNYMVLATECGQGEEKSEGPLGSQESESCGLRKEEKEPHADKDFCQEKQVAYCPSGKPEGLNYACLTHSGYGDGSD
Summary of the method: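 Radiometric proximity read-out: 33P incorporated into IRS-Tide captured on streptavidin imaging beads and imaged on LEADseeker. Phosphorylation ran 120 min at RT with 20 μM ATP (substrate-mix level) in Tris pH7.5/MgCl2/EGTA/Tween buffer; EDTA stop.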

[6] = test system: Ros pY2274 in HCC78 cells; assay: pROS1 immunofluorescence assay in HCC78 cells; format: cell-based; details: Homo sapiens, read-out: HCC78-pRos1 pIC50 (converted)
Method: pROS1 Immunofluorescence Assay in HCC78 Cells
Approximately 20000 HCC78 non-small cell lung cancer cells in 180 μl of cell culture medium (RPMI-1640, 10% FBS, 2 mM L-Glutamine, 10 mM Hepes, 1 mM sodium pyruvate, 4.5 g/L glucose, 1.5 g/L sodium bicarbonate, 25 μg/ml Gentamycin) were seeded in each well of a 96-well polystyrene, poly-D-lysine coated plate and incubated at 37° C. and 5% CO2. After 24 hours, compounds were diluted in cell culture medium from which 20 μl was added to the wells containing cells and incubated for 4 hours at 37° C. and 5% CO2. The medium was removed and the cells were fixed by adding 100 μl of 5% formaldehyde in TBS (tris-buffered saline) (50 mM Tris.HCl, pH 7.4, 150 mM NaCl) and incubating for 15 minutes at room temperature. The formaldehyde was removed and replaced with methanol for 10 minutes at room temperature, after which the cells were washed 3 times with TBS containing 1% Triton X-100 and incubated in Odyssee (Li-Cor) blocking buffer for 1 hour at room temperature. The cells were then incubated with the primary rabbit antibody directed against Ros pY2274 (cst-3078) diluted 1/200 in blocking buffer for 24 hours at room temperature. The cells were washed three times with TBS containing 0.1% Triton X-100 and incubated with a secondary anti-rabbit antibody conjugated to the fluorescent dye Alexafluor 680 in blocking buffer for 1 hour at room temperature. The cells were washed three times with TBS containing 0.1% Triton X-100 and left to dry before measuring RFUs (Relative Fluorescence Units) at 700 nm using a fluorescence imager.
The same experiment was performed using total Ros1 antibody (sc-6347) diluted 1/1000 instead of Ros1 pY2274 antibody and an anti-goat antibody conjugated to IRDye800cw as a secondary antibody. RFUs were measured at […]. The signals from total Ros1 detection were used to normalize the Ros1 pY2274 values.

[7] = counter-screen, wild-type, 10 ng/ml murine IL-3
[8] = HCC78 cells, 4 hours, Ros pY2274 normalized to total Ros1

| Compound | CC50 [1, 7] | Ba/3 Ros1 G2032R (-IL-3) pIC50 [2] | Ba/F3 Ros1 L2026M (-IL-3) pIC50 [3] | BaF3-ROS1-IL3 pIC50 [4] | EC50 ([5]; HCC78 cells, 4 days, MTT) | IC50 (Ros1 enzyme) | CC50 [1] | melting point | EC50 [5] | HCC-78 PROL pEC50 ([5]; HCC78 cells, 4 days, MTT) | IC50 ([6]; HCC78, 4 h) | ROS1 pIC50 (Ros1 enzyme) | IC50 [6, 8] |
| --- | --- | --- | --- | --- | --- | --- | --- | --- | --- | --- | --- | --- | --- |
| CC(O)CN1CCn2nc(-c3ccncc3)c(-c3ccc(OCc4ccc(C(C)C)cc4)cc3)c2C1=O (stereo not shown) [Compound 47] | > 10 µM | 6.9 | 7.5 | 7.3 | 79.4 nM | 50.1 nM |  |  |  |  |  |  |  |
| CC(C)c1ccc(COc2ccc(-c3c(-c4ccncc4)nn4c3C(=O)N(CCO)CC4)c(C#N)c2)cc1 [Compound 28] |  | 7.3 | 7.7 | 7.8 |  | 15.8 nM | > 10 µM | 185 °C | 63.1 nM |  |  |  |  |
| COCCc1cc(COc2ccc(-c3c(-c4ccncc4)nn4c3C(=O)NCC4)cc2)ccc1C(C)C [Compound 84] |  | 7.0 | 7.2 | 7.7 |  | 25.1 nM | > 10 µM | 208 °C | 31.6 nM |  |  |  |  |
| CC(C)c1ccc(COc2ccc(-c3c(-c4ccncc4)nn4c3C(=O)N(CC(O)CO)CC4)cc2)cc1 (stereo not shown) [Compound 44] |  | 6.8 | 6.9 | 7.4 |  | 50.1 nM |  | 192 °C |  | 6.6 |  |  |  |
| CC(C)c1ccc(COc2ccc(-c3c(-c4ccncc4)nn4c3C(=O)NCC4)cc2F)cc1 [Compound 18] |  | 7.3 | 7.7 | 7.7 |  | 10 nM | > 10 µM | 241 °C | 39.8 nM |  |  |  |  |
| CC(C)c1ccc(COc2ccc(-c3c(-c4ccncc4)nn4c3C(=O)N(CC(C)(C)O)CC4)cc2)cc1 [Compound 51] |  | 6.6 | 7.3 | 7.2 |  | 79.4 nM | > 10 µM | 211 °C | 100 nM |  |  |  |  |
| COc1cc(-c2c(-c3ccncc3)nn3c2C(=O)NCC3)cnc1OCc1ccc(C(C)C)cc1 [Compound 8] |  |  | 7.8 | 7.9 |  | 6.31 nM | > 10 µM | 135 °C | 39.8 nM |  | 25.1 nM |  |  |
| CC(C)c1ccc(COc2ccc(-c3c(-c4ccncn4)nn4c3C(=O)N(CCO)CC4)cc2)cc1 [Compound 159] |  | 6.4 | 7.2 | 7.3 |  | 50.1 nM | > 10 µM | 160 °C | 63.1 nM |  |  |  |  |
| CC(O)CN1CCn2nc(-c3ccncc3)c(-c3ccc(OCc4ccc(C(C)C)cc4)cc3)c2C1=O (stereo not shown) [Compound 46] |  | 6.9 | 7.1 | 7.5 |  |  |  | 177 °C |  | 7.0 |  | 7.3 |  |
| CC(C)c1ccc(COc2ccc(-c3c(-c4ccncn4)nn4c3C(=O)N(C)CC4)cc2)cc1 [Compound 214] | > 10 µM |  | 7.3 | 7.4 | 100 nM | 31.6 nM |  | 160 °C |  |  |  |  | 31.6 nM |
| CC(C)c1ccc(C2CCc3cc(-c4c(-c5ccncc5)nn5c4C(=O)N(CCO)CC5)ccc3O2)cc1 (stereo not shown) [Compound 200] |  | 6.6 | 6.3 | 7.3 |  | 126 nM | > 10 µM |  | 316 nM |  |  |  |  |
| COc1cc(-c2c(-c3ccnc(N)c3)nn3c2C(=O)NCC3)ccc1OCc1ccc(C(C)C)cc1 [Compound 149] |  |  | 7.4 | 7.6 |  | 7.94 nM | > 10 µM | 179 °C | < 31.6 nM |  | 12.6 nM |  |  |
| O=C1NC2(CC2)Cn2nc(-c3ccncc3)c(-c3ccc(OCc4ccc(C5CC5)cc4)cc3)c21 [Compound 5] |  |  | 7.5 | 7.6 |  | 25.1 nM | > 10 µM | 239 °C | 316 nM |  | 50.1 nM |  |  |
| CC(C)c1ccc(COc2ccc(-c3c(-c4ccncn4)nn4c3C(=O)N(C(C)C)CC4)cc2)cc1 [Compound 160] | > 10 µM |  | 7.3 | 7.3 | 100 nM | 39.8 nM |  | 166 °C |  |  |  |  | 31.6 nM |
